Patent US20220160842A1, “METHOD OF TREATING INFECTIVE ENDOCARDITIS” (priority 2019, published 2022)
≈ marks a conversion by molar mass, not a printed value. Marks after values point to notes of the source that are not given here.

What was measured:
S. aureus (MRSA) = experiment: MIC by broth microdilution; type: cell-based, Staphylococcus aureus; settings: S. aureus (MRSA), N=74
Method: (§1) Minimal inhibitory concentrations (MICs) of exebacase against staphylococci were determined by broth microdilution (BMD) using a nonstandard antimicrobial susceptibility testing (AST) medium comprised of cation-adjusted Mueller Hinton broth (caMHB) supplemented with horse serum (Sigma Aldrich) and dithiothreitol (DTT; Sigma Aldrich) to final concentrations of 25% and 0.5 mM, respectively. This medium, referred to as caMHB-HSD, is approved for use in exebacase AST by the Clinical and Laboratory Standards Institute (CLSI) (CLSI. 2017, Jan. 16-17. AST Subcommittee Working Group Meetings and Plenary. AST Meeting Files & Resources, clsi.org/education/microbiology/ast/ast-meeting-files-resources/. Additional supplementation with 2.5% lysed red blood cells (Remel™, ThermoFisher) was included for analyses of streptococcal isolates, as recommended by CLSI. See CLSI, 2015. Methods for Dilution Antimicrobial Susceptibility Tests for Bacteria That Grow Aerobically, 10th Edition. Clinical and Laboratory Standards Institute, Wayne, Pa.
(§2) Daptomycin (Sigma Aldrich) and vancomycin hydrochloride (Sigma Aldrich) were tested following the reference BMD method for each. See CLSI. 2015. Methods for Dilution Antimicrobial Susceptibility Tests for Bacteria That Grow Aerobically, 10th Edition. Clinical and Laboratory Standards Institute, Wayne, Pa.

S. aureus (MSSA) = experiment: MIC by broth microdilution; type: cell-based, Staphylococcus aureus; settings: S. aureus (MSSA), N=73
Method: as §1, §2

S. lugdunensis = experiment: MIC by broth microdilution; type: cell-based, Staphylococcus lugdunensis; settings: S. lugdunensis, N=49
Method: as §1, §2

S. haemolyticus = experiment: MIC by broth microdilution; type: cell-based, Staphylococcus haemolyticus; settings: S. haemolyticus, N=36
Method: as §1, §2

S. capitis = experiment: MIC by broth microdilution; type: cell-based, Staphylococcus capitis; settings: S. capitis, N=13
Method: as §1, §2

S. warneri = experiment: MIC by broth microdilution; type: cell-based, Staphylococcus warneri; settings: S. warneri, N=23
Method: as §1, §2

S. anginosus = experiment: MIC by broth microdilution; type: cell-based, Streptococcus anginosus; settings: S. anginosus (viridans), N=10
Method: as §1, §2

S. gordonii = experiment: MIC by broth microdilution; type: cell-based, Streptococcus gordonii; settings: S. gordonii (viridans), N=11
Method: as §1, §2

S. mutans = experiment: MIC by broth microdilution; type: cell-based, Streptococcus mutans; settings: S. mutans (viridans), N=22
Method: as §1, §2

S. oralis = experiment: MIC by broth microdilution; type: cell-based, Streptococcus oralis; settings: S. oralis (viridans), N=15
Method: as §1, §2

S. salivarius = experiment: MIC by broth microdilution; type: cell-based, Streptococcus salivarius; settings: S. salivarius (viridans), N=12
Method: as §1, §2

S. gallolyticus = experiment: MIC by broth microdilution; type: cell-based, Streptococcus gallolyticus; settings: S. gallolyticus (bovis), N=19
Method: as §1, §2

S. pyogenes = experiment: MIC by broth microdilution; type: cell-based, Streptococcus pyogenes; settings: S. pyogenes (group A), N=100
Method: as §1, §2

S. pneumoniae = experiment: MIC by broth microdilution; type: cell-based, Streptococcus pneumoniae; settings: S. pneumoniae, N=59
Method: as §1, §2

E. faecalis = experiment: MIC by broth microdilution; type: cell-based, Enterococcus faecalis; settings: E. faecalis (formerly group D), N=18
Method: as §1, §2

MRSA strain MW2 = experiment: Left-sided catheter-induced IE model due to MRSA, CF-301 dose strategies plus DAP (Example 4); type: in vivo, rabbits
Method: Briefly, female New Zealand White rabbits (Harlan Laboratories; 2.3 to 2.5 kg body weight) underwent transcarotid-transaortic valve catheterization, and IE was induced by IV infection of ˜1-2×10^5 cfu of MW2 at 48 hours (h) after catheterization. […] See also FIG. 4.
On day 5, animals were sacrificed, and target tissues (cardiac vegetations, kidney and spleen) were removed and quantitatively cultured. Tissue MRSA counts are given as the mean log10 CFU/g of tissue±SD).
A two-tailed Student's t test was used to analyze the tissue MRSA counts between different groups. P values <0.05 were considered significant. No adjustment was made for all the P values reported in this study.

[1] = Staphylococcus aureus, read-out: MIC50
[2] = Staphylococcus aureus, read-out: MIC90

CCCCCCCCCC(=O)N[C@@H](Cc1c[nH]c2ccccc12)C(=O)N[C@H](CC(N)=O)C(=O)N[C@@H](CC(=O)O)C(=O)N[C@@H]1C(=O)NCC(=O)N[C@@H](CCCN)C(=O)N[C@@H](CC(=O)O)C(=O)N[C@H](C)C(=O)N[C@@H](CC(=O)O)C(=O)NCC(=O)N[C@H](CO)C(=O)N[C@@H]([C@H](C)CC(=O)O)C(=O)N[C@@H](CC(=O)c2ccccc2N)C(=O)O[C@@H]1C [DAP, Daptomycin]
MIC Range (S. aureus (MRSA)): 0.125 to 1 µg/mL
MIC50 (S. aureus (MRSA); [1]): 0.25 µg/mL (≈ 0.154 µM)
MIC90 (S. aureus (MRSA); [2]): 0.5 µg/mL (≈ 0.309 µM)
MIC Range (S. aureus (MSSA)): 0.125 to 0.5 µg/mL
MIC50 (S. aureus (MSSA); [1]): 0.25 µg/mL (≈ 0.154 µM)
MIC90 (S. aureus (MSSA); [2]): 0.25 µg/mL (≈ 0.154 µM)
MIC Range (S. lugdunensis): 0.25 to 2 µg/mL
MIC50 (S. lugdunensis; Staphylococcus lugdunensis, read-out: MIC50): 0.5 µg/mL (≈ 0.309 µM)
MIC90 (S. lugdunensis; Staphylococcus lugdunensis, read-out: MIC90): 1 µg/mL (≈ 0.617 µM)
MIC Range (S. haemolyticus): 0.25 to 2 µg/mL
MIC50 (S. haemolyticus; Staphylococcus haemolyticus, read-out: MIC50): 0.5 µg/mL (≈ 0.309 µM)
MIC90 (S. haemolyticus; Staphylococcus haemolyticus, read-out: MIC90): 1 µg/mL (≈ 0.617 µM)
MIC Range (S. capitis): 0.25 to 1 µg/mL
MIC50 (S. capitis; Staphylococcus capitis, read-out: MIC50): 0.5 µg/mL (≈ 0.309 µM)
MIC90 (S. capitis; Staphylococcus capitis, read-out: MIC90): 1 µg/mL (≈ 0.617 µM)
MIC Range (S. warneri): 0.25 to 2 µg/mL
MIC50 (S. warneri; Staphylococcus warneri, read-out: MIC50): 0.5 µg/mL (≈ 0.309 µM)
MIC90 (S. warneri; Staphylococcus warneri, read-out: MIC90): 2 µg/mL (≈ 1.23 µM)
MIC Range (S. anginosus): 0.25 to 0.5 µg/mL
MIC50 (S. anginosus; Streptococcus anginosus, read-out: MIC50): 0.5 µg/mL (≈ 0.309 µM)
MIC90 (S. anginosus; Streptococcus anginosus, read-out: MIC90): 0.5 µg/mL (≈ 0.309 µM)
MIC Range (S. gordonii): 0.25 to 1 µg/mL
MIC50 (S. gordonii; Streptococcus gordonii, read-out: MIC50): 0.5 µg/mL (≈ 0.309 µM)
MIC90 (S. gordonii; Streptococcus gordonii, read-out: MIC90): 0.5 µg/mL (≈ 0.309 µM)
MIC Range (S. mutans): 0.25 to 8 µg/mL
MIC50 (S. mutans; Streptococcus mutans, read-out: MIC50): 0.5 µg/mL (≈ 0.309 µM)
MIC90 (S. mutans; Streptococcus mutans, read-out: MIC90): 1 µg/mL (≈ 0.617 µM)
MIC Range (S. oralis): 0.25 to 1 µg/mL
MIC50 (S. oralis; Streptococcus oralis, read-out: MIC50): 0.5 µg/mL (≈ 0.309 µM)
MIC90 (S. oralis; Streptococcus oralis, read-out: MIC90): 0.5 µg/mL (≈ 0.309 µM)
MIC Range (S. salivarius): 0.06 to 0.5 µg/mL
MIC50 (S. salivarius; Streptococcus salivarius, read-out: MIC50): 0.25 µg/mL (≈ 0.154 µM)
MIC90 (S. salivarius; Streptococcus salivarius, read-out: MIC90): 0.5 µg/mL (≈ 0.309 µM)
MIC Range (S. gallolyticus): 0.06 to 0.5 µg/mL
MIC50 (S. gallolyticus; Streptococcus gallolyticus, read-out: MIC50): 0.125 µg/mL (≈ 0.0771 µM)
MIC90 (S. gallolyticus; Streptococcus gallolyticus, read-out: MIC90): 0.25 µg/mL (≈ 0.154 µM)
MIC Range (S. pyogenes): 0.016 to 0.06 µg/mL
MIC50 (S. pyogenes; Streptococcus pyogenes, read-out: MIC50): 0.03 µg/mL (≈ 0.0185 µM)
MIC90 (S. pyogenes; Streptococcus pyogenes, read-out: MIC90): 0.06 µg/mL (≈ 0.037 µM)
MIC Range (S. pneumoniae): 0.06 to 0.25 µg/mL
MIC50 (S. pneumoniae; Streptococcus pneumoniae, read-out: MIC50): 0.125 µg/mL (≈ 0.0771 µM)
MIC90 (S. pneumoniae; Streptococcus pneumoniae, read-out: MIC90): 0.5 µg/mL (≈ 0.309 µM)
MIC Range (E. faecalis): 0.25 to 0.5 µg/mL
MIC50 (E. faecalis; Enterococcus faecalis, read-out: MIC50): 0.5 µg/mL (≈ 0.309 µM)
MIC90 (E. faecalis; Enterococcus faecalis, read-out: MIC90): 0.5 µg/mL (≈ 0.309 µM)
MRSA density, Mean Log10 CFU/g tissue ± SD, Kidneys (MRSA strain MW2; DAP alone 4 mg/kg QD): 4.62 ± 1.16^a Log10 CFU/g tissue
MRSA density, Mean Log10 CFU/g tissue ± SD, Spleen (MRSA strain MW2; DAP alone 4 mg/kg QD): 4.04 ± 0.87^a Log10 CFU/g tissue
reduction in MRSA densities in all three target tissues vs vehicle controls (MRSA strain MW2; DAP alone 4 mg/kg iv QD x 4 day): 2-3 log10 cfu/g
